Measured values published in patent US20040204596A1, “Method for the preparation of unsaturated hydroxy fatty acids and their esters, their use in pharmaceutical and/or cosmetic preparations” (Pierre Potier, priority 2001, published 2004).
Several values for one entry are separate records, joined by “and”; a condition that tells them apart may be missing. Equal values may be shown once.

Tests used:
adipose tissue explants = experiment: Lipolytic activity on adipose tissue explants ex vivo (lipids released in culture medium, TLC; histology); assay type: cell-based
Procedure: DHA was incorporated in the culture medium at a final concentration of 0.25 and 0.5%. After 8 days of contact, the activity was evaluated by quantitative determination of the lipids distributed in the culture medium.
Twelve adipose tissue explants (plasty P202-AB31) were prepared and placed in survival state in BEM medium (BIO-EC's Explants Medium). The explants were distributed in 4 lots of 3 explants:
one positive control lot (caffeine at 0.1%),
two product lots (DHA at 0.25 and 0.5%).
On Day 0, the explants were placed in survival state in 2 ml of culture medium, in which the product to be tested was incorporated.
This treatment was renewed on Day 2, Day 4 and Day 6.
On Day 2, Day 4, Day 6 and Day 8, the culture medium was collected. For each explant, the media collected on Day 2, Day 4, Day 6 and Day 8 were grouped together in the same tube and preserved at −20° C. for quantitative determination of the lipids.
On Day 8, the adipose tissue explants were collected and fixed in ordinary Bouin's fixative for the histological study.
The fixed adipose tissue explants were dehydrated, impregnated with paraffin, but in block form, sectioned and stained with Masson's trichrome.
After extraction of the culture medium, the lipids were separated and quantitatively determined by TLC.
The viability and morphology of the adipocytes was monitored by the histologic study.
The lipolytic activity was evaluated by analysis of the proportions of monoglycerides, diglycerides, triglycerides and free fatty acids.
The results are expressed in mass (μg) of each category of lipid released in the culture medium during the 8 days of treatment.
Table 5 below represents the statistical analysis using Student's test of the results of the quantitative determination of the fatty acids released in the culture medium during the 8 days of treatment.

[1] = tested on: cutaneous 5-alpha-reductase; experiment: Inhibition of cutaneous 5-alpha-reductase activity; assay type: biochemical
Excerpt: DHA is capable of inhibiting cutaneous 5-alpha-reductase, the enzyme responsible for the production of di-hydro-testosterone. Treatment with 0.1% of DHA and treatment with 0.5% of DHA reduced by about 70% and about 90%, respectively, the 5-alpha-reductase activity compared to an untreated control. This inhibition results in a considerable reduction of the sebum level.

collagenase [2] = experiment: Anticollagenase activity on frozen sections of human skin (picrosirius staining); assay type: biochemical; parameters: key to Alteration of the collagen structure: 0: An absence of alteration of the collagen structure; 1: somewhat; 2: markedly to very strongly altered collagen structure; conditions: for Alteration of the collagen structure: frozen human skin sections, 2 hours at 37° C.; for inhibition of the activity of collagenase: collagenase 30 U/ml
Procedure: This example was performed with different solutions at concentrations of 1 and 2% of active principles in comparison with the excipient alone, buffer controls and collagenase. The active principles used were DHA, the 2-dimethylamino ethyl ester of trans-10-hydroxy-2-decenoic acid (ML40) and the glycerol ester of trans-10-hydroxy-2-decenoic acid (GM).
Frozen 5-μm-thick sections from a mammary plasty of a person were placed on histological slides (4 sections per slide). Each solution was tested on one slide.
The sections were covered with the solutions to be tested then incubated for 2 hours at 37° C. in a humid chamber. The solutions were eliminated by repeated rinsings and the sections were stained with picrosirius. Microscopic examination was performed with the 2.5 objective and paper photographs were taken with Kodak Gold 100 ASA film.
Table 2 summarizes the results of alteration of the collagen structure as a function of the tested solution. An absence of alteration of the collagen structure is indicated by 0 while a somewhat or markedly to very strongly altered collagen structure is indicated, respectively, by 1 or 2.

collagenase [3] = experiment: Anticollagenase activity on human skin explants maintained in survival state; assay type: cell-based
Procedure: The study was performed on a 5% GM product in comparison with the excipient (hydrocerin), a positive control and a control in the presence of collagenase at 100 U/ml.
Hydrocerin was used as the excipient for the preparation of the product to be applied. This study was performed twice. […] In the second study, the study time was extended and the collection of the explants was performed on Day 2 and on Day 4.
Human skin explants prepared and distributed into 16 lots of three explants each were placed in survival state according to Table 3.
The product was applied on Day 0 and on Day 2 at the rate of 20 mg per explant and collagenase was incorporated into the culture medium of the […].
Three explants of each lot were collected on Day 2 and on Day 4, fixed in ordinary Bouin's fixative and subjected to histological processing.
The histological study comprised:
impregnation in paraffin,
staining with Sirius red F3B,
calorimetric measurements of the collagen by image analysis,
comparison with photographs.
For this reason, the survival, the contact and the application were extended to Day 4. The collagenase action was monitored in two ways: intensity of the coloration of the collagen network and thickness of the dermal structure. With this study, penetration of the active principle and its inhibitory activity were correlated in relation to collagenase.

[4] = caffeine 0.1%, 8 days of treatment
[5] = DHA at 0.25%, 8 days of treatment
[6] = DHA at 0.5%, 8 days of treatment
[7] = 1% active principle + collagenase 30 U/ml
[8] = 1% active principle, no collagenase
[9] = 2% active principle + collagenase 30 U/ml
[10] = 2% active principle, no collagenase
[11] = product containing 5% of GM in hydrocerin, 20 mg per explant on Day 0 and Day 2, collagenase 100 U/ml, Day 4

## Cn1c(=O)c2c(ncn2C)n(C)c1=O [Caffeine, caffeine, reference compound]
Adipose tissue explants; [4]
  % augmentation/Control of fatty acids released: 2780.6%
  Diglycerides released in the culture medium, Mean: 0.02 µg
  Fatty acids released in the culture medium, Mean: 27.99 µg
  Monoglycerides released in the culture medium, Mean: 1.22 µg
  Triglycerides released in the culture medium, Mean: 197.34 µg
  fatty acids released in the culture medium, individual explants: 33.89 µg and 24.10 µg and 25.97 µg
Adipose tissue explants; caffeine 0.1%, 8 days of treatment, listed as caffeine
  % augmentation/Control of fatty acids released: 2780%
Adipose tissue explants; caffeine at 0.1%, 8 days of treatment
  augmentation factor of fatty acids released compared to the untreated control: about 29

## O=C(O)/C=C/CCCCCCCO [DHA, trans-10-hydroxy-2-decenoic acid]
[1]; treatment with 0.1% of DHA
  reduction of 5-alpha-reductase activity compared to an untreated control: about 70%
[1]; treatment with 0.5% of DHA
  reduction of 5-alpha-reductase activity compared to an untreated control: about 90%
Adipose tissue explants; DHA applied at 0.25%
  lipolytic activity (Student's test): significant lipolytic activity
Adipose tissue explants; DHA applied at 0.5%
  lipolytic activity (Student's test): significant lipolytic activity
Adipose tissue explants; [5]
  % augmentation/Control of fatty acids released: 1075% and 1075.6%
  Diglycerides released in the culture medium, Mean: 0.00 µg
  Fatty acids released in the culture medium, Mean: 11.42 µg
  Monoglycerides released in the culture medium, Mean: 3.64 µg
  Triglycerides released in the culture medium, Mean: 156.15 µg
  fatty acids released in the culture medium, individual explants: 9.95 µg and 11.67 µg and 12.66 µg
Adipose tissue explants; [6]
  % augmentation/Control of fatty acids released: 1087% and 1086.8%
  Diglycerides released in the culture medium, Mean: 0.00 µg
  Fatty acids released in the culture medium, Mean: 11.53 µg
  Monoglycerides released in the culture medium, Mean: 7.06 µg
  Triglycerides released in the culture medium, Mean: 202.56 µg
  fatty acids released in the culture medium, individual explants: 12.81 µg and 11.64 µg and 10.14 µg
Adipose tissue explants; adipose tissue explants, 8 days
  maximum effective dose (lipolytic effect): ~0.25%
Collagenase [2]; [7]
  Alteration of the collagen structure: 0
Collagenase [2]; [8]
  Alteration of the collagen structure: 0
Collagenase [2]; 1%
  inhibition of the activity of collagenase: inhibited completely
Collagenase [2]; [9]
  Alteration of the collagen structure: 0
Collagenase [2]; [10]
  Alteration of the collagen structure: 0
Collagenase [2]; 2%
  inhibition of the activity of collagenase: inhibited completely

## O=C(/C=C/CCCCCCCO)OCC(O)CO (stereo not drawn) [GM, glycerol ester of trans-10-hydroxy-2-decenoic acid]
Collagenase [3]; 5% GM product, human skin explants, collagenase 100 U/ml
  anticollagenase activity: pronounced anticollagenase activity
Collagenase [3]; [11]
  degradation of the collagen bundles: very slightly degraded
  thickness of the dermis: diminished slightly
Collagenase [2]; [7]
  Alteration of the collagen structure: 2
Collagenase [2]; [8]
  Alteration of the collagen structure: 0
Collagenase [2]; [9]
  Alteration of the collagen structure: 1
Collagenase [2]; [10]
  Alteration of the collagen structure: 0
Collagenase [2]; 2%
  inhibition of the activity of collagenase: only slightly inhibited

## CN(C)CCOC(=O)/C=C/CCCCCCCO [ML40, 2-dimethylamino ethyl ester of trans-10-hydroxy-2-decenoic acid]
Collagenase [2]; [7]
  Alteration of the collagen structure: 2
Collagenase [2]; [8]
  Alteration of the collagen structure: 0
Collagenase [2]; [9]
  Alteration of the collagen structure: 1
Collagenase [2]; [10]
  Alteration of the collagen structure: 0
Collagenase [2]; 2%
  inhibition of the activity of collagenase: only slightly inhibited

## c1cnc2c(c1)ccc1cccnc12 [phenanthroline, reference compound]
Collagenase [3]; positive control + collagenase 100 U/ml, Day 4
  dermal structure: the same as that of the controls without collagenase
